How the values were obtained:
[1] = test system: CPC-N; assay: cells; type: functional, cell-based; details: Homo sapiens;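 further: growth inhibition of CPC-N cells, with a cell viability assay as the readout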
Description: SANGER: Inhibition of human CPC-N cell growth in a cell viability assay.

[2] = test system: DG-75; assay: cells; type: functional, cell-based; details: Homo sapiens;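 further: growth inhibition of DG-75 cells, read out with a cell viability assay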
Description: SANGER: Inhibition of human DG-75 cell growth in a cell viability assay.

[3] = test system: DMS-153; assay: cells; type: functional, cell-based; details: Homo sapiens
Description: SANGER: Inhibition of human DMS-153 cell growth in a cell viability assay.

[4] = test system: Daudi; assay: cells; type: functional, cell-based; details: Homo sapiens;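 further: growth inhibition of Daudi cells, read out by a viability assay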
Description: SANGER: Inhibition of human Daudi cell growth in a cell viability assay.

[5] = test system: ECC12; assay: cells; type: functional, cell-based; details: Homo sapiens
Description: SANGER: Inhibition of human ECC12 cell growth in a cell viability assay.

[6] = test system: ECC4; assay: cells; type: functional, cell-based; details: Homo sapiens;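 further: growth inhibition of ECC4 cells, read out with a cell viability assay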
Description: SANGER: Inhibition of human ECC4 cell growth in a cell viability assay.

[7] = test system: EHEB; assay: cells; type: functional, cell-based; details: Homo sapiens;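 further: growth inhibition of human EHEB cells, read out with a cell viability assay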
Description: SANGER: Inhibition of human EHEB cell growth in a cell viability assay.

[8] = test system: GCIY; assay: cells; type: functional, cell-based, Homo sapiens; details: Homo sapiens, GCIY;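 further: growth inhibition of the human GCIY cell line, read out by a cell viability assay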
Description: SANGER: Inhibition of human GCIY cell growth in a cell viability assay.

[9] = test system: HCC70; assay: cells; type: functional, cell-based, Homo sapiens; details: Homo sapiens, HCC70;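 further: cell viability assay measuring how strongly the compound suppresses proliferation of HCC70 cells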
Description: SANGER: Inhibition of human HCC70 cell growth in a cell viability assay.

[10] = test system: HCT-116; assay: cells; type: functional, cell-based, Homo sapiens; details: Homo sapiens, HCT-116
Description: SANGER: Inhibition of human HCT-116 cell growth in a cell viability assay.

[11] = test system: HCT-15; assay: cells; type: functional, cell-based, Homo sapiens; details: Homo sapiens, HCT-15;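 further: cell viability readout, IC50 reflecting suppression of HCT-15 cell growth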
Description: SANGER: Inhibition of human HCT-15 cell growth in a cell viability assay.

[12] = test system: IMR-5; assay: cells; type: functional, cell-based; details: Homo sapiens;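 further: growth inhibition of human IMR-5 cells, read out with a cell viability assay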
Description: SANGER: Inhibition of human IMR-5 cell growth in a cell viability assay.

[13] = test system: KU-19-19; assay: cells; type: functional, cell-based, Homo sapiens; details: Homo sapiens, KU-19-19
Description: SANGER: Inhibition of human KU-19-19 cell growth in a cell viability assay.

[14] = test system: L-428; assay: cells; type: functional, cell-based; details: Homo sapiens
Description: SANGER: Inhibition of human L-428 cell growth in a cell viability assay.

[15] = test system: LB647-SCLC; assay: cells; type: functional, cell-based; details: Homo sapiens;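 further: cell growth inhibition, read out by a viability assay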
Description: SANGER: Inhibition of human LB647-SCLC cell growth in a cell viability assay.

[16] = test system: LB831-BLC; assay: cells; type: functional, cell-based, Homo sapiens; details: Homo sapiens, LB831-BLC;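 further: growth inhibition of LB831-BLC cells, read out with a cell viability assay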
Description: SANGER: Inhibition of human LB831-BLC cell growth in a cell viability assay.

[17] = test system: LNCaP-Clone-FGC; assay: cells; type: functional, cell-based, Homo sapiens; details: Homo sapiens, LNCaP-Clone-FGC
Description: SANGER: Inhibition of human LNCaP-Clone-FGC cell growth in a cell viability assay.

[18] = test system: LP-1; assay: cells; type: functional, cell-based; details: Homo sapiens;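 further: growth inhibition of human LP-1 cells, with the read-out taken from a cell viability assay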
Description: SANGER: Inhibition of human LP-1 cell growth in a cell viability assay.

[19] = test system: LS-123; assay: cells; type: functional, cell-based, Homo sapiens; details: Homo sapiens, LS-123
Description: SANGER: Inhibition of human LS-123 cell growth in a cell viability assay.

[20] = test system: LU-99A; assay: cells; type: functional, cell-based, Homo sapiens; details: Homo sapiens, LU-99A;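 further: growth inhibition of LU-99A cells, read out with a cell viability assay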
Description: SANGER: Inhibition of human LU-99A cell growth in a cell viability assay.

[21] = test system: MC-IXC; assay: cells; type: functional, cell-based, Homo sapiens; details: Homo sapiens, MC-IXC;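 further: growth inhibition of MC-IXC cells, read out with a cell viability assay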
Description: SANGER: Inhibition of human MC-IXC cell growth in a cell viability assay.

[22] = test system: MHH-CALL-2; assay: cells; type: functional, cell-based; details: Homo sapiens;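 further: growth inhibition of the cell line, read out in a cell viability assay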
Description: SANGER: Inhibition of human MHH-CALL-2 cell growth in a cell viability assay.

[23] = test system: MS-1; assay: cells; type: functional, cell-based; details: Homo sapiens
Description: SANGER: Inhibition of human MS-1 cell growth in a cell viability assay.

[24] = test system: MZ1-PC; assay: cells; type: functional, cell-based, Homo sapiens; details: Homo sapiens, MZ1-PC;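 further: cell viability assay measuring growth inhibition of human MZ1-PC cells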
Description: SANGER: Inhibition of human MZ1-PC cell growth in a cell viability assay.

[25] = test system: NALM-6; assay: cells; type: functional, cell-based; details: Homo sapiens;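 further: growth inhibition of NALM-6 cells, read out with a cell viability assay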
Description: SANGER: Inhibition of human NALM-6 cell growth in a cell viability assay.

[26] = test system: NCI-H1417; assay: cells; type: functional, cell-based; details: Homo sapiens;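 further: human NCI-H1417 cells, growth inhibition determined with a cell viability readout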
Description: SANGER: Inhibition of human NCI-H1417 cell growth in a cell viability assay.

[27] = test system: NCI-H2081; assay: cells; type: functional, cell-based; details: Homo sapiens;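 further: growth inhibition of human NCI-H2081 cells, read out with a cell viability assay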
Description: SANGER: Inhibition of human NCI-H2081 cell growth in a cell viability assay.

[28] = test system: NCI-H2228; assay: cells; type: functional, cell-based, Homo sapiens; details: Homo sapiens, NCI-H2228;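 further: growth inhibition of human NCI-H2228 cells, read out by a cell viability assay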
Description: SANGER: Inhibition of human NCI-H2228 cell growth in a cell viability assay.

[29] = test system: NCI-H345; assay: cells; type: functional, cell-based; details: Homo sapiens;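 further: growth inhibition of NCI-H345 cells measured with a cell viability assay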
Description: SANGER: Inhibition of human NCI-H345 cell growth in a cell viability assay.

[30] = test system: NCI-H748; assay: cells; type: functional, cell-based; details: Homo sapiens;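 further: growth inhibition of NCI-H748 cells, measured by a cell viability assay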
Description: SANGER: Inhibition of human NCI-H748 cell growth in a cell viability assay.

[31] = test system: NY; assay: cells; type: functional, cell-based, Homo sapiens; details: Homo sapiens, NY
Description: SANGER: Inhibition of human NY cell growth in a cell viability assay.

[32] = test system: PANC-08-13; assay: cells; type: functional, cell-based, Homo sapiens; details: Homo sapiens, PANC-08-13
Description: SANGER: Inhibition of human PANC-08-13 cell growth in a cell viability assay.

[33] = test system: PF-382; assay: cells; type: functional, cell-based; details: Homo sapiens
Description: SANGER: Inhibition of human PF-382 cell growth in a cell viability assay.

[34] = test system: RD; assay: cells; type: functional, cell-based, Homo sapiens; details: Homo sapiens, RD
Description: SANGER: Inhibition of human RD cell growth in a cell viability assay.

[35] = test system: REH; assay: cells; type: functional, cell-based; details: Homo sapiens;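 further: growth inhibition of REH cells determined with a cell viability read-out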
Description: SANGER: Inhibition of human REH cell growth in a cell viability assay.

[36] = test system: RL; assay: cells; type: functional, cell-based; details: Homo sapiens
Description: SANGER: Inhibition of human RL cell growth in a cell viability assay.

[37] = test system: RPMI-6666; assay: cells; type: functional, cell-based; details: Homo sapiens
Description: SANGER: Inhibition of human RPMI-6666 cell growth in a cell viability assay.

[38] = test system: RPMI-8226; assay: cells; type: functional, cell-based; details: Homo sapiens
Description: SANGER: Inhibition of human RPMI-8226 cell growth in a cell viability assay.

[39] = test system: SBC-1; assay: cells; type: functional, cell-based; details: Homo sapiens;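 further: cell viability assay measuring growth inhibition of the SBC-1 cell line, IC50 being the concentration that halves growth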
Description: SANGER: Inhibition of human SBC-1 cell growth in a cell viability assay.

[40] = test system: SIMA; assay: cells; type: functional, cell-based, Homo sapiens; details: Homo sapiens, SIMA;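 further: growth inhibition of SIMA cells, measured with a cell viability readout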
Description: SANGER: Inhibition of human SIMA cell growth in a cell viability assay.

[41] = test system: SJRH30; assay: cells; type: functional, cell-based; details: Homo sapiens;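 further: growth inhibition of human SJRH30 cells, read out with a cell viability assay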
Description: SANGER: Inhibition of human SJRH30 cell growth in a cell viability assay.

[42] = test system: SK-N-AS; assay: cells; type: functional, cell-based, Homo sapiens; details: Homo sapiens, SK-N-AS;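 further: growth inhibition of human SK-N-AS cells, measured with a cell viability assay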
Description: SANGER: Inhibition of human SK-N-AS cell growth in a cell viability assay.

[43] = test system: SNU-423; assay: cells; type: functional, cell-based, Homo sapiens; details: Homo sapiens, SNU-423
Description: SANGER: Inhibition of human SNU-423 cell growth in a cell viability assay.

[44] = test system: SW756; assay: cells; type: functional, cell-based, Homo sapiens; details: Homo sapiens, SW756;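 further: growth inhibition of human SW756 cells, read out with a cell viability assay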
Description: SANGER: Inhibition of human SW756 cell growth in a cell viability assay.

[45] = test system: TALL-1; assay: cells; type: functional, cell-based; details: Homo sapiens;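 further: growth inhibition of cultured human TALL-1 cells, read out by a cell viability assay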
Description: SANGER: Inhibition of human TALL-1 cell growth in a cell viability assay.

[46] = test system: BC1 cell line; assay: SANGER: Inhibition of human BC-1 cell growth in a cell viability assay.; type: functional, cell-based
[47] = test system: BE-13; assay: cells; type: functional, cell-based; details: Homo sapiens;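 further: growth inhibition of human BE-13 cells, measured with a cell viability assay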
Description: SANGER: Inhibition of human BE-13 cell growth in a cell viability assay.

[48] = test system: TE-441-T; assay: cells; type: functional, cell-based; details: Homo sapiens
Description: SANGER: Inhibition of human TE-441-T cell growth in a cell viability assay.

[49] = test system: U-698-M; assay: cells; type: functional, cell-based; details: Homo sapiens
Description: SANGER: Inhibition of human U-698-M cell growth in a cell viability assay.

Compound: CN(c1ncccc1CNc1nc(Nc2ccc3c(c2)CC(=O)N3)ncc1C(F)(F)F)S(C)(=O)=O [PF-00562271]
- IC50 [1]: > 2560 nM
- IC50 [2]: > 2560 nM
- IC50 [3]: > 2560 nM
- IC50 [4]: > 2560 nM
- IC50 [5]: > 2560 nM
- IC50 [6]: > 2560 nM
- IC50 [7]: > 2560 nM
- IC50 [8]: > 2560 nM
- IC50 [9]: > 2560 nM
- IC50 [10]: > 2560 nM
- IC50 [11]: > 2560 nM
- IC50 [12]: > 2560 nM
- IC50 [13]: > 2560 nM
- IC50 [14]: > 2560 nM
- IC50 [15]: > 2560 nM
- IC50 [16]: 2010 nM
- IC50 [17]: > 2560 nM
- IC50 [18]: > 2560 nM
- IC50 [19]: > 2560 nM
- IC50 [20]: > 2560 nM
- IC50 [21]: > 2560 nM
- IC50 [22]: > 2560 nM
- IC50 [23]: > 2560 nM
- IC50 [24]: 1620 nM
- IC50 [25]: > 2560 nM
- IC50 [26]: > 2560 nM
- IC50 [27]: > 2560 nM
- IC50 [28]: > 2560 nM
- IC50 [29]: > 2560 nM
- IC50 [30]: > 2560 nM
- IC50 [31]: > 2560 nM
- IC50 [32]: > 2560 nM
- IC50 [33]: > 2560 nM
- IC50 [34]: > 2560 nM
- IC50 [35]: > 2560 nM
- IC50 [36]: > 2560 nM
- IC50 [37]: > 2560 nM
- IC50 [38]: > 2560 nM
- IC50 [39]: > 2560 nM
- IC50 [40]: > 2560 nM
- IC50 [41]: > 2560 nM
- IC50 [42]: > 2560 nM
- IC50 [43]: > 2560 nM
- IC50 [44]: > 2560 nM
- IC50 [45]: > 2560 nM
- IC50 [46]: 1620 nM
- IC50 [47]: > 2560 nM
- IC50 [48]: > 2560 nM
- IC50 [49]: > 2560 nM

Compound: COc1cc([C@@H]2c3cc4c(cc3[C@@H](O[C@@H]3O[C@@H]5CO[C@@H](C)O[C@H]5[C@H](O)[C@H]3O)[C@H]3COC(=O)[C@H]23)OCO4)cc(OC)c1O [ETOPOSIDE]
- IC50 [1]: > 16000 nM
- IC50 [2]: > 16000 nM
- IC50 [3]: > 16000 nM
- IC50 [4]: 5360 nM
- IC50 [5]: 954 nM
- IC50 [6]: > 16000 nM
- IC50 [7]: > 16000 nM
- IC50 [8]: 925 nM
- IC50 [9]: > 16000 nM
- IC50 [10]: 1010 nM
- IC50 [11]: 7870 nM
- IC50 [12]: 469 nM
- IC50 [13]: > 16000 nM
- IC50 [14]: 2990 nM
- IC50 [15]: 2000 nM
- IC50 [16]: 6150 nM
- IC50 [17]: > 16000 nM
- IC50 [18]: > 16000 nM
- IC50 [19]: 4020 nM
- IC50 [20]: 2430 nM
- IC50 [21]: 115 nM
- IC50 [22]: > 16000 nM
- IC50 [23]: 5640 nM
- IC50 [24]: 811 nM
- IC50 [25]: 206 nM
- IC50 [26]: 4610 nM
- IC50 [27]: 4920 nM
- IC50 [28]: 2660 nM
- IC50 [29]: > 16000 nM
- IC50 [30]: 871 nM
- IC50 [31]: 4490 nM
- IC50 [32]: > 16000 nM
- IC50 [33]: 724 nM
- IC50 [34]: 4800 nM
- IC50 [35]: 224 nM
- IC50 [36]: > 16000 nM
- IC50 [37]: 1030 nM
- IC50 [38]: 14300 nM
- IC50 [39]: > 16000 nM
- IC50 [40]: 8850 nM
- IC50 [41]: 4720 nM
- IC50 [42]: > 16000 nM
- IC50 [43]: 1750 nM
- IC50 [44]: 2980 nM
- IC50 [45]: > 16000 nM
- IC50 [46]: 545 nM
- IC50 [47]: 504 nM
- IC50 [48]: > 16000 nM
- IC50 [49]: 12500 nM

Compound: CCC1=C[C@@H]2CN(C1)Cc1c([nH]c3ccccc13)[C@@](C(=O)OC)(c1cc3c(cc1OC)N(C)[C@H]1[C@@](O)(C(=O)OC)[C@H](OC(C)=O)[C@]4(CC)C=CCN5CC[C@]31[C@@H]54)C2 [VINORELBINE]
- IC50 [1]: > 64 nM
- IC50 [2]: > 64 nM
- IC50 [3]: > 64 nM
- IC50 [4]: > 64 nM
- IC50 [5]: 0.509 nM
- IC50 [6]: > 64 nM
- IC50 [7]: > 64 nM
- IC50 [8]: 57.9 nM
- IC50 [9]: 30.6 nM
- IC50 [10]: 3.37 nM
- IC50 [11]: > 64 nM
- IC50 [12]: 11.3 nM
- IC50 [13]: > 64 nM
- IC50 [14]: > 64 nM
- IC50 [15]: 6.89 nM
- IC50 [16]: 29.2 nM
- IC50 [17]: 17.9 nM
- IC50 [18]: > 64 nM
- IC50 [19]: > 64 nM
- IC50 [20]: 6.24 nM
- IC50 [21]: 1.49 nM
- IC50 [22]: > 64 nM
- IC50 [23]: > 64 nM
- IC50 [24]: 17.7 nM
- IC50 [25]: 5.94 nM
- IC50 [26]: 24.1 nM
- IC50 [27]: 33.6 nM
- IC50 [28]: 12.9 nM
- IC50 [29]: 44.9 nM
- IC50 [30]: 57 nM
- IC50 [31]: 8.12 nM
- IC50 [32]: 46.9 nM
- IC50 [33]: 11.7 nM
- IC50 [34]: 5.42 nM
- IC50 [35]: 7.21 nM
- IC50 [36]: > 64 nM
- IC50 [37]: 6.86 nM
- IC50 [38]: 17 nM
- IC50 [39]: > 64 nM
- IC50 [40]: > 64 nM
- IC50 [41]: 29.3 nM
- IC50 [42]: > 64 nM
- IC50 [43]: 5.54 nM
- IC50 [44]: > 64 nM
- IC50 [45]: > 64 nM
- IC50 [46]: 9.39 nM
- IC50 [47]: 12.4 nM
- IC50 [48]: 34.9 nM
- IC50 [49]: 12.2 nM

Reference: ChEMBL document CHEMBL1201861, “Genomics of Drug Sensitity in Cancer screening data, Wellcome Trust Sanger Institute”
